Entries after “also recorded” stand apart in the source; their conditions may differ.
Tested on: human PC-3 prostate cancer cells
Experiment: in vitro assay of PC-3 cell invasion across Matrigel artificial membrane
Assay type: cell-based
Settings: for X ± σ (X = mean number of invading cells, σ = standard deviation): PC-3 cells, HGF 40 ng/ml induced invasion, fixed total concentration 4 micrograms/ml, 72 hr culture, c+ 33 ± 10.7, c− 3 ± 1.7; for inhibition of PC-3 invasion, result in words: total dose 4 micrograms/ml, Kruskal-Wallis test
Source text: In order to determine a possible molecular mechanism of mixtures of conjugated fatty acids and polyphenols according to the present invention, an accepted in vitro assay of cancer cell invasion was employed (Jiang et al., (1995) Regulation of the expression of E-cadherin on human cancer cells by gamma-linolenic acid (GLA). Cancer Res. 55:5043-5048).
Specifically, human PC-3 prostate cancer cells were used as an in vitro model to assess invasion across a Matrigel™ (Becton, Dickenson and Company, Franklin Lakes, N.J.) artificial membrane. Briefly, 6.5 mm diameter polycarbonate membranes (pore size 8 microns) […]. Following gel rehydration, 5×10^4 PC-3 human prostate cancer cells were added to each well. Hepatocyte growth factor/scatter factor (HGF) (Becton, Dickenson & Company, Franklin Lakes, N.J.) was used at 40 ng/ml to induce invasion. The upper chamber contained thested components (i.e. punicic acid, luteolin, caffeic acid or ellagic acid, or a combination of two, three or all four of the chemicals) at a fixed total concentration of 4 micrograms/ml.
Pure compounds (ellagic acid ([…], luteolin [L], caffeic acid [C] and punicic acid […]) were purchased commercially (E, C and L from Sigma Aldrich, Rehovot, Israel; P from Larodan Chemicals; Malmo; Sweden) and assayed as potential invasion inhibitors. The total dose was 4 micrograms/ml in each of 18 trials. The Kruskal-Wallis test was used to measure significance.

Row | SMILES | X ± σ (X = mean number of invading cells, σ = standard deviation) | inhibition of PC-3 invasion, result in words
1 | O=c1oc2c(O)c(O)cc3c(=O)oc4c(O)c(O)cc1c4c23 [E, ellagic acid] | 7.4 ± 2.3 | inhibited invasion significantly
2 | O=c1cc(-c2ccc(O)c(O)c2)oc2cc(O)cc(O)c12 [L, luteolin] | 9 ± 1.6 | inhibited invasion significantly
3 | O=C(O)/C=C/c1ccc(O)c(O)c1 [C, caffeic acid] | 16.8 ± 3.4 | inhibited invasion significantly; also recorded: much less than that of ellagic acid, punicic acid or luteolin
4 | CCCC\C=C/C=C/C=C\CCCCCCCC(=O)O [P, punicic acid] | 6.4 ± 1.1 | inhibited invasion significantly

Source: patent US20080234361A1, “Pharmaceutical Compositions, Methods of Formulation Thereof and Methods of Use Thereof” (Rimonest Ltd., priority 2004, published 2008)
